Chromatographic logP data for four compounds are collected here from patent US20050182073A1, “5-Phenylpyrimidines” (priority 2004, published 2005).

This series in a line: logP determination by HPLC (EEC Directive 79/831 Annex V. A8). The class given is physicochemical. The conditions noted are these: gradient method, acetonitrile/0.1% aqueous phosphoric acid. The method, then: The logP values were determined in accordance with EEC Directive 79/831 Annex V. A8 by HPLC (gradient method, acetonitrile/0.1% aqueous phosphoric acid).
Usually chromatographic logP stands for a lipophilicity value derived from retention on a column. A low value points to a more hydrophilic compound. Regarding `CSc1nc(Cl)c(-c2ccc(F)cc2Cl)c(CC(C)C)n1` [II-2, 4-chloro-5-(2-chloro-4-fluorophenyl)-6-isobutyl-2-(methylthio)pyrimidine], the chromatographic logP stood at 5.67.

As for `CC(C)Cc1nc([S+](C)[O-])nc(Cl)c1-c1ccc(F)cc1Cl` (stereo not shown) [4-chloro-5-(2-chloro-4-fluorophenyl)-6-isobutyl-2-(methylsulphinyl)pyrimidine], the chromatographic logP is 3.27.

Consider `CC(C)Cc1nc(S(C)(=O)=O)nc(Cl)c1-c1ccc(F)cc1Cl` [III-2a, 4-chloro-5-(2-chloro-4-fluorophenyl)-6-isobutyl-2-(methylsulphonyl)pyrimidine], for which the chromatographic logP was determined as 3.82.

In turn, `CC(C)Cc1nc(-n2cncn2)nc(Cl)c1-c1ccc(F)cc1Cl` [Example 1, 4-chloro-5-(2-chloro-4-fluorophenyl)-6-isobutyl-2-(1H-1,2,4-triazol-1-yl)pyrimidine] showed a chromatographic logP of 3.79.
